Each block holds one compound with its values, some of them ahead of it.
Legend:
[1] = Stability in DMSO / d6-DMSO at room temperature (LCMS, 1H and 19F NMR); type: physicochemical; conditions: for stability of DMSO stock solution (in words): LCMS
Method: Key to this was running LCMS analysis on a d6-DMSO NMR sample that was left at room temperature for 6 weeks. Despite also degrading into the carboxylic acid 12, the mass of the other species was different by +6 Daltons compared to the non-deuterated sample. […] To monitor the speed of degradation, a fresh sample was analysed periodically by ^1H and ^19F NMR spectroscopy (Figure 4).

[2] = biological target: T1, acid ceramidase (Homo sapiens, UniProt Q13510); experiment: purified protein acid ceramidase inhibition assay; type: biochemical; conditions: freshly synthesised sample
T1 construct: if using cell lysate, each well contained 7.45 µL assay buffer; endogenous in cells; host or cells: HEK293 cell lysate (supernatant after freeze-thaw and homogenisation)
T1 sequence (Q13510 22-395): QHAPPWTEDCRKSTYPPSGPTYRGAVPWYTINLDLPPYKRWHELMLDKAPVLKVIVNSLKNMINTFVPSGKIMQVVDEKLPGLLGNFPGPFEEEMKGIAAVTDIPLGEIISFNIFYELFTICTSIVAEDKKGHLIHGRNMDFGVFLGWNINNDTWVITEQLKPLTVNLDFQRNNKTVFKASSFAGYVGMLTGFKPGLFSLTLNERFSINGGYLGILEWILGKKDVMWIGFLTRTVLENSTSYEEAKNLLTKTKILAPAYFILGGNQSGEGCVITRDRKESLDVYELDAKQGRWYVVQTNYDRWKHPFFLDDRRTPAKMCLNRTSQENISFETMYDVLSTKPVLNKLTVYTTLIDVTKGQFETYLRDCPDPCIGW
Method: (§1) Acid ceramidase activity assay
(§2) To measure acid ceramidase activity, an assay previously described by Bedia et al., (2010) was miniaturised to a 384-well format. The enzymatic assay was carried out in black flat bottom 384-well plates. Briefly, if using cell lysate, each well contained 7.45 µL assay buffer (25 mM sodium acetate pH 4.5) and 0.05 µL 4 mM RBM14-C12 (Avanti, USA) in ethanol (20 µM final substrate concentration), 2 µg protein in 2.4 µL 0.2 M sucrose, and 0.1 µL compound (control wells contained 0.1 µL DMSO). If using purified acid ceramidase protein (Peak Proteins), the experimental set up was similar, but 100 nM protein was used, and the assay buffer contained 25 mM sodium acetate pH 4.5, 0.1% Pluronic F-127, 0.5 mM EGTA, 0.05% BSA, 1 mM TCEP. Blank wells contained the same reaction mixes but without the protein samples. The reaction started upon addition of the protein sample. The plate was incubated at 37°C for 3 h. The reaction was stopped upon addition of 10 µL fresh detection mix (2.5 mg/mL NaIO4 in 100 mM glycine/NaOH buffer pH 10.6) and the plate incubated for […]

[3] = Reactivity with the amino acid cysteine (LCMS); type: physicochemical; conditions: LCMS analysis
Source text: Almost all reported small-molecule inhibitors of acid ceramidase are covalent in their mechanism of action by reaction with cysteine 143 [14, 15, 16, 17, 18, 19, 20, 21, 22]. In some cases, the covalent warhead itself is linked to promiscuity and intrinsic chemical instability. To probe whether 1 was chemically reactive in this way, a sample was stirred with the amino acid cysteine.

[4] = biological target: T1, acid ceramidase; experiment: HTS acid ceramidase assay (modified reported assay, without Saposin D); type: biochemical
Source text: Despite continuing advances in structure-driven research, High-Throughput Screening (HTS) is still a valuable resource to find novel chemical starting points in drug discovery. Recently, the Medicines Discovery Institute initiated an HTS looking for small-molecule inhibitors of acid ceramidase, a lysosomal enzyme. […] This substantial increase in potency can be explained by the fact that to function properly, acid ceramidase requires a co-factor present in cells which was not present in the original HTS assay, Saposin D [4].

[5] = biological target: T1, acid ceramidase; experiment: Preincubation acid ceramidase activity assay; type: biochemical; conditions: pre-incubated at 0, 1 and 3 h at IC50 concentration, 37°C
Source text: A partially degraded sample was purified by reverse-phase chromatography to isolate the DMSO-addition species. Although only a small amount of material was isolated, ^1H NMR spectroscopic analysis was consistent with the proposed structure (Scheme 3). The ^1H NMR data, in particular, were in line with that reported for a related compound (3f, see Supplementary Material). Such reactivity has been reported between N-pivaloyloxybenzamides and sulfoxides in the presence of an iron catalyst. The decomposition reaction to form a sulfoximine reported in this paper should be of interest to the synthetic community as it proceeds cleanly at ambient temperature without the need for reagents nor a catalyst; however, further optimisation of the reaction is beyond the scope of this paper.
Cultured HEK293 cells were grown until 80-90% confluency, collected, and washed twice in PBS. Collected cell pellets were resuspended in 0.2 M sucrose solution and freeze-thawed three times before being homogenised using a syringe and 25 G needle. […] The supernatant was collected, and protein quantified using Bradford reagent. […]
To measure acid ceramidase activity, an assay previously described by Bedia et al., (2010) was miniaturised to a 384-well format. […] Fluorescence was measured using a microplate reader (PHERAstar FSX; BMG Labtech) at excitation and emission wavelengths of 350 nm and 450 nm […]

[6] = biological target: T1, acid ceramidase; experiment: in-house cell lysate acid ceramidase inhibition assay (HEK293 cell lysate, RBM14-C12 substrate); type: biochemical
Method: Cultured HEK293 cells were grown until 80-90% confluency, collected, and washed twice in PBS. Collected cell pellets were resuspended in 0.2 M sucrose solution and freeze-thawed three times before being homogenised using a syringe and 25 G needle. Lysed cells were centrifuged at 17,000 g for 30 min at 4°C. The supernatant was collected, and protein quantified using Bradford reagent.
as §1, §2

[7] = cell lysate assay, supplied (HTS library) samples, read-out: IC50

Compound: O=C(NOC(=O)c1ccc(N2CCCCCC2)c([N+](=O)[O-])c1)c1ccc(OC(F)F)cc1 [compound 1]
stability of DMSO stock solution (in words) [1]: slowly degraded into two species | estimated half-life ([1]; d6-DMSO, room temperature, 1H and 19F NMR integrations against time): just over two days | IC50 [2]: 163 nM | stability when stirred with cysteine (in words) [3]: slowly decomposed into two main chemical species | IC50 ([4]; library sample): 340 nM | inhibition after pre-incubation (in words) [5]: time-dependent inhibition pattern expected of a covalent inhibitor | IC50 ([6]; cell lysate assay with addition of EDTA, read-out: IC50): 7 nM | IC50 ([6]; cell lysate assay with addition of N,N,N′,N′-tetrakis(2-pyridinylmethyl)-1,2-ethanediamine (Zn2+ chelator), read-out: IC50): 8 nM | IC50 ([6]; cell lysate assay, freshly synthesised sample, read-out: IC50): 3.2 nM | IC50 [6, 7]: 11 nM

Compound: CC(C)(C)c1ccc(C(=O)NOC(=O)c2ccc(Cl)c(Cl)c2)cc1 [compound 2]
inhibition (in words) ([4]; Figure 1): moderate inhibition | IC50 [6, 7]: 237 nM

Compound: O=C=Nc1ccc(OC(F)F)cc1 [compound 7]
stability of DMSO stock solution (in words) [1]: fully hydrolysed to 8 | IC50 [6]: ~100000 nM

Compound: O=C(Nc1ccc(OC(F)F)cc1)Nc1ccc(OC(F)F)cc1 [compound 8]
IC50 ([6]; cell lysate assay, read-out: IC50): ~100000 nM

Continued, values first:

activity (in words) ([6]; cell lysate assay): inactive
Compound: O=C(O)c1ccc(N2CCCCCC2)c([N+](=O)[O-])c1 [compound 12]

activity (in words) ([6]; cell lysate assay): no activity
Compound: CS(C)(=O)=NC(=O)c1ccc(OC(F)F)cc1 [compound 13]

Source: publication PMC11548001, “Beware of N-Benzoyloxybenzamides” (Molecules, 2024)
